A word on the Km: it is the substrate concentration at which the rate is half of its maximum.

The values below come from article PMC2823129 (Lipids, 2009).

The experiment has as its system mitochondrial GPAT (GPAT1-like). In words: […]glycerol-3-phosphate incorporation into organic phase, liquid scintillation. Format: biochemical, Macrobrachium borellii. The note with it: read-out: apparent Km; mitochondrial fraction; 0.8 mM glycerol-3-phosphate, 4 mM MgCl2, 2 mg/ml BSA, 8 mM NaF, 1 mM DTT, 75 mM Tris-HCl pH 7.4, 30°C.

`CCCCCCCC/C=C\CCCCCCCC(=O)SCCNC(=O)CCNC(=O)[C@H](O)C(C)(C)COP(=O)(O)OP(=O)(O)OC[C@H]1O[C@@H](n2cnc3c(N)ncnc32)[C@H](O)[C@@H]1OP(=O)(O)O` [oleoyl-CoA]: the Michaelis constant (Km) amounted to 31.2 µM.
